A word on the EC50: it is the concentration giving half of the maximal effect.

Counter-ions that a name gives are not always drawn.

The subject of one series is cytokines and chemokines. More on the design: species or system mice. The note with it: mouse, in vivo.
The subject of series [1] is Norovirus (human norovirus, GT1 strain). Description: microbe, parasite or virus in culture. The note with it: read-out: EC50. The format is cell-based.
Series [2] deals with EBOV. The note with it: mouse, in vivo; cited from earlier work.
Series [3] relates to EBOV. The note with it: in vivo; cited from earlier work.
Series [4] has as its system EBOV. The note with it: in vivo; cited from earlier work. This is another data set of the same source.

`CCN(CC)CCOc1ccc2c(c1)C(=O)c1cc(OCCN(CC)CC)ccc1-2` [Tilorone, tilorone dihydrochloride]: in the series with cytokines and chemokines, the IFN-α/β levels result is on record as “below the LLOD”; the “cytokine/chemokine protein concentrations over vehicle-treated and naïve mice” value is “statistically significant increase in observed protein concentrations”.
Turning to `C[C@@]1(O)[C@H](O)[C@@H](CO)O[C@H]1n1ccc(N)nc1=O` [2’C-methyl cytidine], the EC50 in series [1] came out at 6.5 µM. Besides, the CC50 in the series with HG23 is over 300 µM.
On to `CCN(CC)CCCC(C)Nc1ccnc2cc(Cl)ccc12` (stereo not shown) [chloroquine], for which, in the series on EBOV [2], the survival rate was 90%. Further, the “activity in guinea pig studies” value in the series with EBOV [3] is “inactive”.

B1: mAb114 (antibody, chains of the INN, looked up, V domains shown)
VH: EVQLVESGGGLIQPGGSLRLSCAASGFALRMYDMHWVRQTIDKRLEWVSAVGPSGDTTYADSVKGRFAVSRENAKNSLSLQMNSLTAGDTAIYYCVRSDRGVAGLFDSWGQGILVTVSS
VL: DIQMTQSPSSLSASVGDRITITCRASQAFDNYVAWYQQRPGKVPKLLISAASALHAGVPSRFSGSGSGTHFTLTISSLQPEDVATYYCQNYNSAPLTFGGGTKVEIK
For B1, in the series on EBOV [4], the “survival rates in clinical trial” value is “higher survival rates than ZMapp and remdesivir”.
